Here are results for 4 molecules from patent US20080096922A1, “Novel Sulfonamide derivative” (Dainippon Sumitomo Pharma Co., Ltd., priority 2004, published 2008).

In one assay the test system is LDL receptor protein. Kind of assay: Measurement of an expression of a LDL receptor (immunoblotting, HepG2). It counts as cell-based, human. The conditions noted are these: HepG2 cell, test compound at 0.1 and 1 μM, compared to a control group. As for the experimental part: The activity of potentiating an expression of a LDL receptor by the test compounds were measured using a human hepatic cell line HepG2. Cells were seeded in a 6 well plate at the density of 7.5×10^5 cells/well (at first day). On third days, the medium was changed to a medium containing lipoprotein-deficient serum and the test compound. On forth days, the cells were scraped and collected by a centrifugation. The recovered cells were dissolved in a cell lysate buffer containing 0.1% TritonX-100 and after centrifugation, the supernatant was used as a solution of cell protein. The amount of the LDL-R protein was evaluated by an immunoblotting method using the above-prepared solution of cell protein.
After treating the HepG2 cell with the compound of Example 1-2, the amount of LDL receptor protein was detected by an immunoblotting method.

The test system of the next assay is LDL receptor. Kind of assay: Effects on an activity of a LDL receptor: uptake amount of DiI-LDL into HepG2 cell. It counts as cell-based, human. The following applies: 10 μM, control group as 100%. As for the experimental part: The 1,1′-dioctadecyl-3,3,3′,3′-tetramethylindocarbocyanine perchlorate (DiI)-labeled LDL (DiI-LDL) was prepared as follows. That is, a DiI (Invitrogen Corp., U.S.A) was mixed with a human LDL (Chemicon International, Inc., U.S.A) and the mixture was incubated at 37° C. for 8 hours. […] After centrifugation, the DiI-labeled LDL fraction was separated and dialyzed with a physiological saline to prepare the above desired solution.
The effects on a LDL receptor activity were determined as the uptake amount of DiI-LDL into HepG2 cell. The cultured human hepatic cell line HepG2 cell was purchased from the Dainippon Pharmaceuticals Co. Ltd. (Osaka, Japan). The HepG2 cells were seeded in a 96 well plate and were incubated in the Dulbecco's modified Eagle/F-12 (DMEM/F-12) medium containing 10% fetal bovine serum and antibiotics in a CO2 incubator at 37° C. for two to three days. After washing the cells, a DMEM/F-12 medium containing 5-10% lipoprotein-deficient serum, the test substrate and the antibiotics were added thereto and the cells were incubated at 37° C. for 19 hours. After adding DiI-LDL, the cells were incubated in a CO2 incubator at 37° C. for another 5 hours. The uptake amount of non-specific DiI-LDL was measured by adding 30 to 50 folds amount of the non-labeled LDL. After washing the cells with Dulbecco's phosphate buffer (Sigma Corp., U.S.A.), the Dulbecco's phosphate buffer was added to each well and then the uptake amount of DiI-LDL into the cell line were measured as the value of fluorescence. After measuring the fluorescence, the Dulbecco's phosphate buffer was removed and thereto was added 1N sodium hydroxide solution to dissolve the cells and the amount of protein was measured by using a part of the resulting solution. The effect on a LDL receptor activity by each compound was determined by calculating the ratio of the amount of fluorescence/the amount of protein, and by subtracting the non-specific uptake amount therefrom and then calculating the control group as 100%.

Structures are written as SMILES.

With `COc1cccc(C2(C(=O)NS(=O)(=O)Oc3c(C(C)C)cccc3C(C)C)CCN(c3ccccc3OC)CC2)c1` [Example 1-2, 2,6-diisopropylphenyl {[1-(2-methoxyphenyl)-4-(3-methoxyphenyl)piperidin-4-yl]carbonyl}sulfamate], the “amount of a LDL receptor protein” value in the assay with LDL receptor protein is listed as “superior increasing effect”. In the assay on LDL receptor, the “Activity of (%) LDL receptor” value worked out at 124%.

As for `COc1cccc([C@]2(CNS(N)(=O)=O)CC[C@@H](NC3CCN(Cc4ccccc4)CC3)CC2)c1` [Example 18-1, N-{[cis-4-[(1-benzylpiperidin-4-yl)amino]-1-(3-methoxyphenyl)cyclohexyl]methyl}sulfamide], the “Activity of (%) LDL receptor” value in the assay with LDL receptor was determined as 230%.

Take `COc1cccc([C@]2(CNS(N)(=O)=O)CC[C@@H](NCc3ccc(-n4ccnc4)cc3)CC2)c1` [Example 18-2, N-{[cis-4-{[4-(1H-imidazol-1-yl)benzyl]amino}-1-(3-methoxyphenyl)cyclohexyl]methyl}sulfamide]: in the assay with LDL receptor, the “Activity of (%) LDL receptor” value is 161%.

With `COc1cccc(C2(C(=O)NS(=O)(=O)Oc3c(C(C)C)cccc3C(C)C)CCN(c3nc4ccccc4s3)CC2)c1` [Example 1-19, 2,6-diisopropylphenyl {[1-(1,3-benzothiazol-2-yl)-4-(3-methoxyphenyl)piperidin-4-yl]carbonyl}sulfamate], the “Activity of (%) LDL receptor” value in the assay on LDL receptor is 132%.
